Results published in PubChem BioAssay AID1845212 (Molecular Pharmacology Branch, DTP, NCI, 2023).
Where “and” joins values, the source holds several entries; their conditions need not be identical. Identical values can stand only once. Calls of active or inactive are those of the source. Rule for the calls: active = viability on the fitted dose curve at most 10% of control; inactive = the rest.
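Throughout, for IC50: spheroids exposed to compounds for seven days.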
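Throughout, for viability, T/C: spheroids exposed to compounds for seven days; percent viability relative to DMSO vehicle control as 100%.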

Each molecule was assayed on NCI-H719 tumor spheroids, viability (assay: Anticancer human tumor NCI-H719 cell line growth inhibition). Conditions: compound 0.316 µM; stronger effect = lower value; spheroids with HUVEC and MSC.
From the text: Multicellular complex tumor spheroid response to DNA repair inhibitors in combination with DNA-damaging drugs
This study explores the anticancer activities of DNA-damaging drugs and inhibitors of DNA damage repair, both as single agents and in combinations. Complex tumor spheroids comprised of malignant cells, endothelial cells and mesenchymal stem cells served as an in vitro model for human solid tumors. This model system incorporates physiologically relevant features and patient-derived or established malignant cell lines with clinically relevant genetic alterations from many tumor types. Twenty-six patient-derived or established malignant cell lines were evaluated representing sarcoma, melanoma, small cell lung cancer (SCLC), non-small cell lung cancer (NSCLC), as well as bladder, ovarian and pancreatic cancers. The concentration ranges selected for each drug and investigational agent were based upon clinically achievable concentrations if the clinical Cmax of the agent was known.
Compounds. The drugs and compounds olaparib (NSC753686), talazoparib (NSC767125), berzosertib (NSC777718), elimusertib (NSC800525), nedisertib (NSC802822), VX-984 (NSC792969), AZD-1390 (NSC803789), temozolomide (NSC362856), topotecan (NSC609699), trabectedin (NSC813783), staurosporine (NSC755774), and gemcitabine (NSC613327) were obtained from the National Cancer Institute (NCI) Developmental Therapeutics Program Chemical Repository. The FDA-approved anticancer drug set is available from the Developmental Therapeutics Program at https://dtp.cancer.gov/organization/dscb/obtaining/available_plates.htm. […] The stock solutions were prepared in dimethyl sulfoxide (DMSO, Sigma-Aldrich, St. Louis, MO, cat. D2650) at 400-fold the tested concentration and stored at -70 degrees C. Prior to their use, the stock solutions were diluted in fresh medium and the final DMSO concentration in the assay was 0.25% (v/v). All drugs and investigational agents were tested over a range starting from a high concentration at or near the clinical Cmax and decreasing in half-log increments. If the clinical Cmax for an agent had not been determined, the highest concentration tested was 10 microM.
Cell Lines. The patient-derived cancer cell (PDC) lines: 156681-154-R-J1-PDC, 283228-195-R-J1-PDC, 287954-098-R-J1-PDC, 292921-168-R-J2-PDC, 349418-098-R-PDC, 425362-245-T-J1-PDC, 556581-035-R-J1-PDC, and BL0293-F563-PDC were received from the NCI Patient-Derived Models Repository (PDMR, https://pdmr.cancer.gov). The established cell lines HS-SY-2 (RRID:CVCL_8719), MPNST, and SYO-1 (RRID:CVCL_7146) were obtained from the Sloan Kettering Institute. The alveolar soft parts sarcoma cell line ASPS-1 (RRID:CVCL_S738) was established at the NCI and grown from internal seed stocks. The following established cell lines were purchased from the American Type Culture Collection (ATCC, Manassas, VA): G-401 (ATCC, cat. CRL-1441, RRID:CVCL_0270), SW982 (ATCC, cat. HTB-93, RRID:CVCL_1734), VA-ES-BJ (ATCC, cat. CRL-2138, RRID:CVCL_1785), NCI-H719 (ATCC, cat. CRL-5837, RRID:CVCL_1582), NCI-H196 (ATCC, cat. CRL-5823, RRID:CVCL_1509), NCI-H841 (ATCC, cat. CRL-5845, RRID:CVCL_1595), NCI-H1618 (ATCC, cat. CRL-5879, RRID:CVCL_1480), NCI-H1876 (ATCC, cat. CRL-5902, RRID:CVCL_1503), DMS 114 (ATCC, cat. CRL-2066; RRID:CVCL_1174), NCI-H211 (ATCC, cat. CRL-5824; RRID:CVCL_1529), and SW 1271 (ATCC, cat. CRL-2177, RRID:CVCL_1716). The small cell lung cancer cell line COR-L88 was purchased from Sigma-Aldrich (cat. 92031917-1VL, RRID:CVCL_1141). The non-small cell lung cancer cell lines NCI-H226 (RRID:CVCL_1544) and NCI-H322M (RRID:CVCL_1557) were established at the NCI and grown from internal seed stocks. Pooled donor human umbilical vein endothelial cells (HUVEC, Lonza, cat. CC-2519) and human mesenchymal stem cells (hMSC, Lonza, cat. PT-2501) were purchased from Lonza (Walkersville, MD).
Cell Culture. All cells were maintained in an incubator at 37 degrees C and 5% CO2 with 95% humidity. […]
For `[2H]c1nc(C)nc([2H])c1-c1cc(NC[C@@H](C)c2cccc3c(C(=O)NC)ccnc23)ncn1`, the viability, T/C was 91.7% and 123%.

Same assay, conditions: compound 0.316 µM; spheroids with HUVEC and MSC
With `[2H]c1nc(C)nc([2H])c1-c1cc(NC[C@@H](C)c2cccc3c(C(=O)NC)ccnc23)ncn1` the outcome was “inactive”.

Same assay, conditions: compound 0.949 µM; stronger effect = lower value; spheroids with HUVEC and MSC
With `CNCc1ccc(-c2cc(-c3nc(-c4ccc(S(=O)(=O)C(C)C)cc4)cnc3N)on2)cc1` the viability, T/C was 9.72% and 6.55% and 13.6%.
`Cc1sc2c(c1C)C(c1ccc(Cl)cc1)=NC(CC(=O)Nc1ccc(O)cc1)c1nnc(C)n1-2` (stereo unspecified) was tested, and the viability, T/C was 4.99% and 4.88% and 4.46%.
`Cn1ncnc1[C@H]1c2n[nH]c(=O)c3cc(F)cc(c23)N[C@@H]1c1ccc(F)cc1` was tested, and the viability, T/C was 5.82% and 8.51% and 7.74%.
With `O=C(c1cc(Cc2n[nH]c(=O)c3ccccc23)ccc1F)N1CCN(C(=O)C2CC2)CC1` the viability, T/C was 71.1% and 82% and 81.4%.

Same assay, conditions: compound 1 µM; stronger effect = lower value; spheroids with HUVEC and MSC
With `CC(C)n1c(=O)n(C)c2cnc3cc(F)c(-c4ccc(OCCCN5CCCCC5)nc4)cc3c21` the viability, T/C was 81.4% and 94.8% and 103%.
For `CC1COCCN1c1cc(-c2ccnn2C)c2ccnc(-c3ccn[nH]3)c2n1` (stereo unspecified), the viability, T/C was 11.2% and 14.3% and 10.5%.
`COc1cc(C)[nH]c(=O)c1CN1CCc2c(Cl)cc(C(OC)C3COC3)c(Cl)c2C1=O` (stereo unspecified) was tested, and the viability, T/C was 109% and 114% (2×).
`COc1ccc([C@@H](O)c2cc(-c3ncnc4cc(N5CCOCC5)ccc34)c(F)cc2Cl)nn1` was tested, and the viability, T/C was 65.6% and 58.1% and 69%.
With `Cc1cc(C)c(CNC(=O)c2cc(-c3ccc(CN4CCOCC4)cc3)cc3c2cnn3C2CCCC2)c(=O)[nH]1` the viability, T/C was 79.3% and 108% and 121%.
With `[2H]c1nc(C)nc([2H])c1-c1cc(NC[C@@H](C)c2cccc3c(C(=O)NC)ccnc23)ncn1` the viability, T/C was 88.7% and 104% and 94.6%.

Same assay, conditions: compound 3 µM; stronger effect = lower value; spheroids with HUVEC and MSC
With `Cc1sc2c(c1C)C(c1ccc(Cl)cc1)=NC(CC(=O)Nc1ccc(O)cc1)c1nnc(C)n1-2` (stereo unspecified) the viability, T/C was 3.39% and 2.12% and 2.52%.
In the case of `Cn1ncnc1[C@H]1c2n[nH]c(=O)c3cc(F)cc(c23)N[C@@H]1c1ccc(F)cc1`, the viability, T/C is reported as 6.37% and 7.94% and 7.04%.
For `O=C(c1cc(Cc2n[nH]c(=O)c3ccccc23)ccc1F)N1CCN(C(=O)C2CC2)CC1`, the viability, T/C was 51.2% and 34.2% and 52.1%.

Same assay, conditions: compound 3.16 µM; stronger effect = lower value; spheroids with HUVEC and MSC
In the case of `CC(C)n1c(=O)n(C)c2cnc3cc(F)c(-c4ccc(OCCCN5CCCCC5)nc4)cc3c21`, the viability, T/C is reported as 85.7% and 142% and 110%.
With `CC1COCCN1c1cc(-c2ccnn2C)c2ccnc(-c3ccn[nH]3)c2n1` (stereo unspecified) the viability, T/C was 11.6% and 8.2% and 8.17%.
With `COc1cc(C)[nH]c(=O)c1CN1CCc2c(Cl)cc(C(OC)C3COC3)c(Cl)c2C1=O` (stereo unspecified) the viability, T/C was 102% and 113% and 106%.
With `COc1ccc([C@@H](O)c2cc(-c3ncnc4cc(N5CCOCC5)ccc34)c(F)cc2Cl)nn1` the viability, T/C was 47.3% and 57.3% and 87.8%.
For `Cc1cc(C)c(CNC(=O)c2cc(-c3ccc(CN4CCOCC4)cc3)cc3c2cnn3C2CCCC2)c(=O)[nH]1`, the viability, T/C was 114% and 92.6% and 103%.
With `[2H]c1nc(C)nc([2H])c1-c1cc(NC[C@@H](C)c2cccc3c(C(=O)NC)ccnc23)ncn1` the viability, T/C was 71.9% and 105% and 111%.

Same assay, conditions: compound 9.49 µM; stronger effect = lower value; spheroids with HUVEC and MSC
In the case of `O=C(c1cc(Cc2n[nH]c(=O)c3ccccc23)ccc1F)N1CCN(C(=O)C2CC2)CC1`, the viability, T/C is reported as 30.8% and 7.1% and 16.9%.

Same assay, conditions: compound 10 µM; stronger effect = lower value; spheroids with HUVEC and MSC
For `CC(C)n1c(=O)n(C)c2cnc3cc(F)c(-c4ccc(OCCCN5CCCCC5)nc4)cc3c21`, the viability, T/C was 108% and 104% and 123%.
With `CC1COCCN1c1cc(-c2ccnn2C)c2ccnc(-c3ccn[nH]3)c2n1` (stereo unspecified) the viability, T/C was 13.3% and 9.71% and 10.8%.
`COc1cc(C)[nH]c(=O)c1CN1CCc2c(Cl)cc(C(OC)C3COC3)c(Cl)c2C1=O` (stereo unspecified) was tested, and the viability, T/C was 114% and 125% and 109%.
With `COc1ccc([C@@H](O)c2cc(-c3ncnc4cc(N5CCOCC5)ccc34)c(F)cc2Cl)nn1` the viability, T/C was 15.5% and 53.7% and 58.8%.
For `Cc1cc(C)c(CNC(=O)c2cc(-c3ccc(CN4CCOCC4)cc3)cc3c2cnn3C2CCCC2)c(=O)[nH]1`, the viability, T/C was 77.5% and 87.8% and 72.1%.
With `[2H]c1nc(C)nc([2H])c1-c1cc(NC[C@@H](C)c2cccc3c(C(=O)NC)ccnc23)ncn1` the viability, T/C was 99.7% and 92.6% and 95.8%.

Same assay, conditions: compound alone; run of 11/07/2019; spheroids with HUVEC and MSC
In the case of `CC[C@@]1(O)C(=O)OCc2c1cc1n(c2=O)Cc2cc3c(CN(C)C)c(O)ccc3nc2-1`, the IC50 is reported as < 3 nM and 3.17 nM.

Same assay, conditions: compound alone; run of 12/16/2019; spheroids with HUVEC and MSC
In the case of `CC[C@@]1(O)C(=O)OCc2c1cc1n(c2=O)Cc2cc3c(CN(C)C)c(O)ccc3nc2-1`, the IC50 is reported as 3.67 nM and 3.31 nM and < 3 nM.
In the case of `COc1cc2c(cc1O)CCNC21CSC2c3c(OC(C)=O)c(C)c4c(c3C(COC1=O)N1C(O)C3Cc5cc(C)c(OC)c(O)c5C(C21)N3C)OCO4` (stereo unspecified), the IC50 is reported as 0.0663 nM [middle of 10 runs].

Same assay, conditions: curve of compound; spheroids with HUVEC and MSC
In the case of `CC(C)n1c(=O)n(C)c2cnc3cc(F)c(-c4ccc(OCCCN5CCCCC5)nc4)cc3c21`, the IC50 is reported as > 10000 nM.
In the case of `CC1COCCN1c1cc(-c2ccnn2C)c2ccnc(-c3ccn[nH]3)c2n1` (stereo unspecified), the IC50 is reported as 137 nM and 80.4 nM and 106 nM.
For `CNCc1ccc(-c2cc(-c3nc(-c4ccc(S(=O)(=O)C(C)C)cc4)cnc3N)on2)cc1`, the IC50 was 158 nM and 216 nM and 264 nM.
With `COc1cc(C)[nH]c(=O)c1CN1CCc2c(Cl)cc(C(OC)C3COC3)c(Cl)c2C1=O` (stereo unspecified) the IC50 was > 10000 nM.
For `COc1ccc([C@@H](O)c2cc(-c3ncnc4cc(N5CCOCC5)ccc34)c(F)cc2Cl)nn1`, the IC50 was 2360 nM and > 10000 nM.
With `Cc1cc(C)c(CNC(=O)c2cc(-c3ccc(CN4CCOCC4)cc3)cc3c2cnn3C2CCCC2)c(=O)[nH]1` the IC50 was > 10000 nM.
With `Cc1sc2c(c1C)C(c1ccc(Cl)cc1)=NC(CC(=O)Nc1ccc(O)cc1)c1nnc(C)n1-2` (stereo unspecified) the IC50 was 104 nM and 156 nM and 140 nM.
With `Cn1ncnc1[C@H]1c2n[nH]c(=O)c3cc(F)cc(c23)N[C@@H]1c1ccc(F)cc1` the IC50 was < 9.49 nM and 11.8 nM.
In the case of `O=C(c1cc(Cc2n[nH]c(=O)c3ccccc23)ccc1F)N1CCN(C(=O)C2CC2)CC1`, the IC50 is reported as 3090 nM and 2030 nM and 3150 nM.
With `[2H]c1nc(C)nc([2H])c1-c1cc(NC[C@@H](C)c2cccc3c(C(=O)NC)ccnc23)ncn1` the IC50 was > 10000 nM.
